In paper PMC11637875, “Discovery of novel PARP1/NRP1 dual-targeting inhibitors with strong antitumor potency” (Frontiers in Pharmacology, 2024):

Columns and labels:
Experiment in all cases: Selectivity profile (123 kinase panel)
Type in all cases: biochemical
[1] = molecular target: ALK (Homo sapiens, UniProt Q9UM73)
[2] = molecular target: CLK4 (Homo sapiens, UniProt Q9HAZ1)
[3] = molecular target: CK1ε (Homo sapiens, UniProt P49674)
[4] = molecular target: INSR (Homo sapiens, UniProt P06213)
[5] = molecular target: GLK (Homo sapiens, UniProt Q8IVH8)

Measured: IC50

Chain of CLK4 (Q9HAZ1 whole entry): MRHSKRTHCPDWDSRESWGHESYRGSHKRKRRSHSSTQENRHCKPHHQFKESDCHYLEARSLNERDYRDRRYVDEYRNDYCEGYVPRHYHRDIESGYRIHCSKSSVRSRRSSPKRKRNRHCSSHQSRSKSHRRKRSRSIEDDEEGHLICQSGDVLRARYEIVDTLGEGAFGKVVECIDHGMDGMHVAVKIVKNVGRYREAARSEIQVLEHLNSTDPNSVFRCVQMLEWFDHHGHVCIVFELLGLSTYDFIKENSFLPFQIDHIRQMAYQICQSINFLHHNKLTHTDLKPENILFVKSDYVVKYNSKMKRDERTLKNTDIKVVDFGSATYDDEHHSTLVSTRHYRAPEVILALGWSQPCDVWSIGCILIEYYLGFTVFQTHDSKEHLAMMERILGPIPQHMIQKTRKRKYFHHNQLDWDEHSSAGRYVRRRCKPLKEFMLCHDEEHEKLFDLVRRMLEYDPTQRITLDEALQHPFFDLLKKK
Chain of GLK (Q8IVH8 whole entry): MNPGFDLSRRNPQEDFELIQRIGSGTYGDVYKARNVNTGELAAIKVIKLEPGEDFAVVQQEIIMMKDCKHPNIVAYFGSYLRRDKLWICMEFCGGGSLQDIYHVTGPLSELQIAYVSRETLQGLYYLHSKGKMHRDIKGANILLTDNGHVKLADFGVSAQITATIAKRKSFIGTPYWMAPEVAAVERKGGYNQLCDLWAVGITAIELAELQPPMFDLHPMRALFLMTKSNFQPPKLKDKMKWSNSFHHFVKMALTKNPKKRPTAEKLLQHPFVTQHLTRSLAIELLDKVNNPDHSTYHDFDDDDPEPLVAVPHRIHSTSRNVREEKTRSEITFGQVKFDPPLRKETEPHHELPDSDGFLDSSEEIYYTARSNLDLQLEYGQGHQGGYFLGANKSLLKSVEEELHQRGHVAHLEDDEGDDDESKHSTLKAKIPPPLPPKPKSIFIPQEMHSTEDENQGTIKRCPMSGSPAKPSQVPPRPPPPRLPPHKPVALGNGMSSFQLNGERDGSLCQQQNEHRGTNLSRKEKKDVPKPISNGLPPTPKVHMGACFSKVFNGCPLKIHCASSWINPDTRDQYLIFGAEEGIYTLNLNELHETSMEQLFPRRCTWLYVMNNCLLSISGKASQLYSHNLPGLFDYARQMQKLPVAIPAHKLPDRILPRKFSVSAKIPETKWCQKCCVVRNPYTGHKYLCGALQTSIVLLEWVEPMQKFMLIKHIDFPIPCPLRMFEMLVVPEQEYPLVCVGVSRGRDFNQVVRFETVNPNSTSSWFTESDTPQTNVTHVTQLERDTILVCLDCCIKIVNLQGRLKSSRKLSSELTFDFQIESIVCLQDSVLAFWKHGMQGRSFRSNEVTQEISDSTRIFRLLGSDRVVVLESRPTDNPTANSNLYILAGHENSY
Chain of INSR (P06213 28-1382): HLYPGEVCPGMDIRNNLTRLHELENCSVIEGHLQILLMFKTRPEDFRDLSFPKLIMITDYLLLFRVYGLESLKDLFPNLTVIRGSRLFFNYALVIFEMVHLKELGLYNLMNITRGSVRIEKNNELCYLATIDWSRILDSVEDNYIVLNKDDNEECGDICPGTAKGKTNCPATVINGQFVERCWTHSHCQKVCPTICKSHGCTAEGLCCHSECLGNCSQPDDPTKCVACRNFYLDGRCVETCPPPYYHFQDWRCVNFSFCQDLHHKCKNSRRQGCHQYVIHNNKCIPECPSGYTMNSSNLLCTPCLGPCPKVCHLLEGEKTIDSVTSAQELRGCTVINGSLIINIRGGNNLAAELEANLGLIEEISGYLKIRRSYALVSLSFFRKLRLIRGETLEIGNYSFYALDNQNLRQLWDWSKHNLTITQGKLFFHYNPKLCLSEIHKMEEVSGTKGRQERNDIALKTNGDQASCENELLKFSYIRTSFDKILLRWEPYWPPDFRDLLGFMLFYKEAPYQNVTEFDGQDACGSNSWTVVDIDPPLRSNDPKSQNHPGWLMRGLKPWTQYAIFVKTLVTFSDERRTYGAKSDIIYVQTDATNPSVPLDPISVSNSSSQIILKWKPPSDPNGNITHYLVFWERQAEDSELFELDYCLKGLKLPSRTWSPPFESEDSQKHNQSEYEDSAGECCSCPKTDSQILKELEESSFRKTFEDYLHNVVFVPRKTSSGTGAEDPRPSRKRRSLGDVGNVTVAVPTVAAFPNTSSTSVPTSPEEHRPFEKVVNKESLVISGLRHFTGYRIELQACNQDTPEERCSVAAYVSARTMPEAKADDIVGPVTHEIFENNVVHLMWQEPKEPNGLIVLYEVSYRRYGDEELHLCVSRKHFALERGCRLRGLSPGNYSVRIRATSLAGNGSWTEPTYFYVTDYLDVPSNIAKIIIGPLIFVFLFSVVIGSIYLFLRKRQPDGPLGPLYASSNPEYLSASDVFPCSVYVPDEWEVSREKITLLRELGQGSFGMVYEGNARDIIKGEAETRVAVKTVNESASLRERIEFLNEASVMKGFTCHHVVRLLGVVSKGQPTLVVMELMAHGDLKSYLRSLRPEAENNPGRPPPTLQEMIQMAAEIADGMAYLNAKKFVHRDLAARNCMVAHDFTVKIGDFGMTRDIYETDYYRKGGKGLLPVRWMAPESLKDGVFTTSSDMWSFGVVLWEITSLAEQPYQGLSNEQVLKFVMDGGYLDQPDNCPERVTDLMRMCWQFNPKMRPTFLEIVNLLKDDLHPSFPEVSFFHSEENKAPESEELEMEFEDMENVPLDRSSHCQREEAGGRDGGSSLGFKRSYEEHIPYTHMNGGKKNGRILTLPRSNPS
Chain of CK1ε (P49674 whole entry): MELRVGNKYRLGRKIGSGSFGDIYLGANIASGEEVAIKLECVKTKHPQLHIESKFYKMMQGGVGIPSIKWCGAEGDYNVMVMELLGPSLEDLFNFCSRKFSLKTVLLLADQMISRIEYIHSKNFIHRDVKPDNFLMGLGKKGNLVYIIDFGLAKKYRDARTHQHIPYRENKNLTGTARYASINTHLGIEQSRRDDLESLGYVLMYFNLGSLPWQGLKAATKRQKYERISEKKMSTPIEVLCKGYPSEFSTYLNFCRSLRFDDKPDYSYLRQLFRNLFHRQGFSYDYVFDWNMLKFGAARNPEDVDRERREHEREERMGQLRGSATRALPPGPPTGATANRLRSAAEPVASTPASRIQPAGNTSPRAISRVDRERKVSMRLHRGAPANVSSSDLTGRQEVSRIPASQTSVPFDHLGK
Chain of ALK (Q9UM73 19-1620): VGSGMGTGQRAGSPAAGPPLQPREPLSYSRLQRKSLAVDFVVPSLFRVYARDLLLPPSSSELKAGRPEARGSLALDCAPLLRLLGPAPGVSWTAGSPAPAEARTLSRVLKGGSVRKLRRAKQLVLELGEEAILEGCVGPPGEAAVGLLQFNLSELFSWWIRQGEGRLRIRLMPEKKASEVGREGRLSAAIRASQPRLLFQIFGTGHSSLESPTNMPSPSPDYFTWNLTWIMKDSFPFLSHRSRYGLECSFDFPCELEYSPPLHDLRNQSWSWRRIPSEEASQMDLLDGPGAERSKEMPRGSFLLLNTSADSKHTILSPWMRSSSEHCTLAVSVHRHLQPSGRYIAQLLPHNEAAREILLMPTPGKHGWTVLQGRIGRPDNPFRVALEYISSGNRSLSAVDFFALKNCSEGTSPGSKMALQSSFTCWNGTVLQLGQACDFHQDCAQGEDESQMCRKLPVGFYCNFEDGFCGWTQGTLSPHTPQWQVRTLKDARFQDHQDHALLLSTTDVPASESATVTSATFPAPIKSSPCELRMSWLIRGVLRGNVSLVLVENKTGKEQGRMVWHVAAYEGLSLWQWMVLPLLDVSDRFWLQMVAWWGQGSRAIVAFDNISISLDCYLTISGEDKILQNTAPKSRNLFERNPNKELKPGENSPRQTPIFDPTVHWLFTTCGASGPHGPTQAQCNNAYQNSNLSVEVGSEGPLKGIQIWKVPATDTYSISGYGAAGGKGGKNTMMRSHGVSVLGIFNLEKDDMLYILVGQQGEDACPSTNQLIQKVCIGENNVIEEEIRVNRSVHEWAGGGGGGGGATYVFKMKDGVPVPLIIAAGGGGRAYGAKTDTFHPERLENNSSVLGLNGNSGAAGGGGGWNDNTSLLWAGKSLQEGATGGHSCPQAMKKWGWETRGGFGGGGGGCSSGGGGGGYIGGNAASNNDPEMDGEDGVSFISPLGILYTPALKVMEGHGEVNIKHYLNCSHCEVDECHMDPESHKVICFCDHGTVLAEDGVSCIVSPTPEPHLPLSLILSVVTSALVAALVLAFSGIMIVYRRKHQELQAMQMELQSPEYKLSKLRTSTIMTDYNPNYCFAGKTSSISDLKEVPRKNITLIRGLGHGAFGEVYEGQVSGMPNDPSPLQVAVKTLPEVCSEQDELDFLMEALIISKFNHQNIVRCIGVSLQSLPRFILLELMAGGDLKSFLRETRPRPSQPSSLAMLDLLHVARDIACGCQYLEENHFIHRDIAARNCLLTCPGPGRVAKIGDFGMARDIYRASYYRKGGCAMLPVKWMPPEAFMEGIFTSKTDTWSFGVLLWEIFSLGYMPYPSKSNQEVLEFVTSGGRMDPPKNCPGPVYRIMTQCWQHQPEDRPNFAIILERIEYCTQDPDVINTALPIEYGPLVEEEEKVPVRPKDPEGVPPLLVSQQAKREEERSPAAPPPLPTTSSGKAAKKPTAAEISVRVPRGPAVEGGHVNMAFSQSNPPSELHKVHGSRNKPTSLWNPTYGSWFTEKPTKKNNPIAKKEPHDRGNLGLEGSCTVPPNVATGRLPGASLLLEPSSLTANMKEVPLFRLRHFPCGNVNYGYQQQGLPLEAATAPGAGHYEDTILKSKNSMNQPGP

NC(N)=NCCC[C@H](NCN1CCN(C(=O)c2cc(Cc3n[nH]c(=O)c4ccccc34)ccc2F)CC1)C(=O)O [PPNR-4]
> 10 µM: all assays above
